Assay results: PMC12163822, “Synthesis and Pharmacological Characterization of a Novel Cannabinoid Receptor 1 Antagonist” (ACS Omega, 2025)

Molecular target: cannabinoid receptors
Test: [3H]CP55,940 competition binding in rat brain cortex membrane homogenates
Design: species or system Sprague-Dawley rat
Conditions: competition vs 0.5 nM [3H]CP55,940, rat brain cortex membranes, one-site fit; read-out: IC50
Protocol: Sprague–Dawley rats (n = 5) were anesthetized and sacrificed by decapitation. Spleens and brains were then quickly removed by dissection at 4 °C, and in the case of the brain tissue, the cortex was dissected for the preparation of the membrane homogenates. For this procedure, spleen and cortex samples were homogenized using a Teflon-glass grinder (15 up-and-down strokes at 800 rpm) in 30 volumes of homogenization buffer (1 mM EGTA, 3 mM MgCl2, 50 mM Tris–HCl; pH 7.4) supplemented with […], at 4 °C. The obtained homogenates were centrifuged for 5 min at 1500 rpm. Pellets were removed, and supernatants were centrifuged again for 15 min at 14,000 rpm. For washing, the obtained pellets were resuspended in a buffer and centrifuged again, and the supernatant was removed. The resulting aliquots were stored at −80 °C until use.
To stop the reaction, an ice-cold wash buffer (50 mM Tris–HCl and 0.5% BSA, pH 7.4) was added. Then, the membranes were retained by vacuum filtration to a Whatman GF/C glass microfiber filter (Sigma-Aldrich, St. Louis, MO, USA) and the free radioligand was discarded. Filters with the bound radioligand were transferred to vials containing 5 mL of Ultima Gold cocktail (Revvity, Boston, MA, USA) and measured with a Packard Tri-Carb 2200CA liquid scintillation counter (Revvity, Boston, MA, USA).
Data from radioligand affinity assays were analyzed by using nonlinear regression. A comparison of fits was performed for every curve and the preferred model (one site vs two sites) was chosen in each case. Curves were fitted to the pooled data from multiple experiments. For the evaluation of data from autoradiographic assays, the Kruskal–Wallis test followed by Dunn’s post hoc tests for multiple comparisons was performed. For statistical significance, the threshold was set at p = 0.05. The number of replicates or animal sample number used in each case is stated in the figure legends. GraphPad Prism 9 (GraphPad Software) was employed for data analysis and presentation.

| Structure (SMILES) | IC50 [µM] |
| --- | --- |
| CCOC(=O)/C=C1\C(=O)Nc2ccc(F)cc2-c2c1c1cc(C)ccc1n2C(=O)OCC [UVI3503] | > 10 |
| O=C(O)CC1C(=O)Nc2ccccc2-c2[nH]c3ccccc3c21 (stereo not shown) [UVI3504] | 5.908 ± 0.00718 |
| CCOC(=O)CC1C(=O)Nc2ccccc2-c2[nH]c3ccccc3c21 (stereo not shown) [UVI3505] | 0.00885 ± 0.0146 |
| O=C(O)/C=C1\C(=O)Nc2ccccc2-c2[nH]c3ccccc3c21 [UVI3506] | 7.041 ± 0.018 |
| CCOC(=O)/C=C1\C(=O)Nc2ccccc2-c2c1c1ccccc1n2C(=O)OCC [UVI3508] | 310 |
| COc1ccc2[nH]c3c(c2c1)/C(=C/C(=O)O)C(=O)Nc1ccc(C)cc1-3 [UVI3509] | > 10 |
| CCOC(=O)CC1c2c([nH]c3ccccc23)-c2ccccc2-n2c(C)nnc21 (stereo not shown) [UVI8113] | 0.0106 |
